Assay: Fluorescence properties (excitation and emission wavelength) of exemplary compounds
Assay type: physicochemical
Settings: for λ^em (nm): emission wavelength; for λ^ex (nm): excitation wavelength
From the text: Exemplary compounds of the invention along with their known fluorescence properties are shown in Table 2 where λ^ex denotes excitation wavelength and λ^em denotes emission wavelength: […]

CC1(C)C2=CC3=[N+](CCN2c2ccccc21)c1cc2c(cc1C3(C)CCCCCC(=O)O)-c1ccccc1C2(C)C.[I-] (stereo not drawn) [Compound E1]
λ^em (nm): 518 nm
λ^ex (nm): 445 nm

CC1(CCCCCC(=O)O)C(/C=C/C=C2\N(CCCS(=O)(=O)O)c3ccc(S(=O)(=O)[O-])cc3C2(C)C)=[N+](CCCS(=O)(=O)O)c2cc3c(cc21)-c1ccc(S(=O)(=O)O)cc1C3(C)C (stereo not drawn) [Compound E2]
λ^em (nm): 602 nm
λ^ex (nm): 572 nm

CC1(C)c2cc(S(=O)(=O)O)ccc2-c2cc3c(cc21)N(CCCCCC(=O)ON1C(=O)CCC1=O)\C(=C/C=C/C=C/C=C/C1=[N+](CCCS(=O)(=O)O)c2cc4c(cc2C12CCCCC2)-c1ccc(S(=O)(=O)[O-])cc1C4(C)C)C31CCCCC1 [Compound E6]
λ^em (nm): 820 nm
λ^ex (nm): 795 nm

CC1(C)C(/C=C/C=C/C=C/C=C2\N(CCCCCC(=O)ON3C(=O)CCC3=O)c3cc4c(cc3C2(C)C)-c2ccc(S(=O)(=O)O)cc2C42CCCCC2)=[N+](CCCS(=O)(=O)O)c2cc3c(cc21)-c1ccc(S(=O)(=O)[O-])cc1C31CCCCC1 [Compound E7]
λ^em (nm): 817 nm
λ^ex (nm): 793 nm

CCCOCCOCCOCCOCCOCCOCCOCCOCCOCCOCCONC(=O)CCC1(CCC(=O)NCCOCCOCCOCCOCCOCCOCCOCCOCCOCCOCCOC)c2cc(S(=O)(=O)O)ccc2-c2cc3c(cc21)N(CCCCCC(=O)ON1C(=O)CCC1=O)/C(=C/C=C/C=C/C1=[N+](CCCCCC(=O)ON2C(=O)CCC2=O)c2cc4c(cc2C1(C)C)-c1ccc(S(=O)(=O)[O-])cc1C4(CCC(=O)NCCOCCOCCOCCOCCOCCOCCOCCOCCOCCOCCOC)CCC(=O)NOCCOCCOCCOCCOCCOCCOCCOCCOCCOCCOCCC)C3(C)C (stereo not drawn) [Compound E14]
λ^em (nm): 721 nm
λ^ex (nm): 696 nm

CCCOCCOCCOCCOCCOCCONC(=O)CCC1(CCC(=O)NCCOCCOCCOCCOCCOCCOC)c2cc3c(cc2-c2c1cc(S(=O)(=O)O)cc2S(=O)(=O)[O-])C(C)(C)C(/C=C/C=C/C=C1/N(CCCCCC(=O)ON2C(=O)CCC2=O)c2cc4c(cc2C1(C)C)-c1c(cc(S(=O)(=O)O)cc1S(=O)(=O)O)C4(CCC(=O)NCCOCCOCCOCCOCCOCCOC)CCC(=O)NOCCOCCOCCOCCOCCOCCC)=[N+]3CCCCCC(=O)ON1C(=O)CCC1=O (stereo not drawn) [Compound E15]
λ^em (nm): 721 nm
λ^ex (nm): 696 nm

CCCOCCOCCOCCOCCOCCOCCOCCOCCOCCOCCONC(=O)CCC1(CCC(=O)NOCCOCCOCCOCCOCCOCCOCCOCCOCCOCCOCCC)c2cc(S(=O)(=O)[O-])ccc2-c2cc3c(cc21)[N+](CCCCCC(=O)ON1C(=O)CCC1=O)=C(/C=C/C1=C(Oc2ccc(S(=O)(=O)O)cc2)C(=C/C=C2/N(CCCCCC(=O)ON4C(=O)CCC4=O)c4cc5c(cc4C2(C)C)-c2ccc(S(=O)(=O)O)cc2C5(CCC(=O)NCCOCCOCCOCCOCCOCCOCCOCCOCCOCCOCCOC)CCC(=O)NCCOCCOCCOCCOCCOCCOCCOCCOCCOCCOCCOC)/CCC1)C3(C)C [Compound E16]
λ^em (nm): 832 nm
λ^ex (nm): 823 nm

CCCOCCOCCOCCOCCOCCONC(=O)CCC1(CCC(=O)NOCCOCCOCCOCCOCCOCCC)c2cc3c(cc2-c2c1cc(S(=O)(=O)O)cc2S(=O)(=O)[O-])C(C)(C)C(/C=C/C1=C(Oc2ccc(S(=O)(=O)O)cc2)C(=C/C=C2/N(CCCCCC(=O)ON4C(=O)CCC4=O)c4cc5c(cc4C2(C)C)-c2c(cc(S(=O)(=O)O)cc2S(=O)(=O)O)C5(CCC(=O)NCCOCCOCCOCCOCCOCCOC)CCC(=O)NCCOCCOCCOCCOCCOCCOC)/CCC1)=[N+]3CCCCCC(=O)ON1C(=O)CCC1=O [Compound E17]
λ^em (nm): 832 nm
λ^ex (nm): 823 nm

CC1(C)C(/C=C/C=C/C=C2\N(CCCCCC(=O)ON3C(=O)CCC3=O)c3cc4c(cc3C2(C)C)-c2c(cc(S(=O)(=O)O)cc2S(=O)(=O)O)C4(C)C)=[N+](CCCCCC(=O)ON2C(=O)CCC2=O)c2cc3c(cc21)-c1c(cc(S(=O)(=O)O)cc1S(=O)(=O)[O-])C3(C)C [Compound E19]
λ^em (nm): 720 nm
λ^ex (nm): 686 nm
